In ChEMBL document CHEMBL4616595, “Targeted suppression of metastasis regulatory transcription factor SOX2 in various cancer cell lines using a sequence-specific designer pyrrole-imidazole polyamide” (Bioorg Med Chem, 2020):
Active and inactive are the calls of the source. The calls are words filed in the database; no cut-off is given here.

Assays:
SOX2 promoter DNA [1] = experiment: Binding affinity to SOX2 promoter 5'-CTTTGTT-3' DNA in human SW620 cells assessed as downregulation of SNAIL2 mRNA expression at 2 uM incubated for 48 hrs by qRT-PCR analysis; type: cell-based; conditions: SW-620
SW-620 [2] = experiment: Up regulation of caspase-3 mRNA expression in human SW620 cells incubated for 48 hrs by qRT-PCR analysis; type: functional, cell-based
SOX2 promoter DNA [3] = experiment: Binding affinity to SOX2 promoter 5'-CTTTGTT-3' DNA in human MCF7 cells assessed as reduction in SOX2 protein level incubated for 48 hrs by immunostaining based FACS analysis; type: cell-based
SOX2 promoter DNA [4] = experiment: Binding affinity to SOX2 promoter 5'-CTTTGTT-3' DNA in human SW620 cells assessed as down regulation of VIM gene expression at 2 uM incubated for 48 hrs by Cy3-labelled cRNA-based microarray analysis; type: cell-based; conditions: SW-620
MKN-45 = experiment: Cell cycle arrest in human MKN45 cells assessed as reduction in accumulation at S phase at 2 uM to 5 uM after 48 hrs by propidium iodide staining based flow cytometry analysis; type: functional
SW-620 [5] = experiment: Cell cycle arrest in human SW620 cells assessed as increase in accumulation at sub-G1/G1 phase at 2 uM to 5 uM after 48 hrs by propidium iodide staining based flow cytometry analysis; type: functional
SW-620 [6] = experiment: Antimigratory activity in human SW620 cells assessed as reduction in cell migration at 5 uM incubated for 24 hrs by Calcein AM staining based fluorescence microscopic analysis relative to untreated control; type: functional
SOX2 promoter DNA [7] = experiment: Binding affinity to SOX2 promoter 5'-CTTTGTT-3' DNA in human ES2 cells assessed as reduction in SOX2 mRNA expression incubated for 48 hrs by qRT-PCR analysis; type: cell-based
SOX2 promoter DNA [8] = experiment: Binding affinity to SOX2 promoter 5'-CTTTGTT-3' DNA in human SW620 cells assessed as down regulation of ALDH1A1 gene expression at 2 uM incubated for 48 hrs by Cy3-labelled cRNA-based microarray analysis; type: cell-based; conditions: SW-620
SW-620 [9] = experiment: Up regulation of TP73 mRNA expression in human SW620 cells incubated for 48 hrs by qRT-PCR analysis; type: functional, cell-based
MCF7 [10] = experiment: Cell cycle arrest in human MCF7 cells assessed as increase in accumulation at sub-G1/G1 phase at 2 uM to 5 uM after 48 hrs by propidium iodide staining based flow cytometry analysis; type: functional
SOX2 promoter DNA [11] = experiment: Binding affinity to SOX2 promoter 5'-CTTTGTT-3' DNA in human SW620 cells assessed as down regulation of JAG1 gene expression at 2 uM incubated for 48 hrs by Cy3-labelled cRNA-based microarray analysis; type: cell-based; conditions: SW-620
SOX2 promoter DNA [12] = experiment: Binding affinity to SOX2 promoter 5'-CTTTGTT-3' DNA in human SW620 cells assessed as reduction in SOX2 mRNA expression incubated for 48 hrs by qRT-PCR analysis; type: cell-based; conditions: SW-620
SW-620 [13] = experiment: Up regulation of GADD45A mRNA expression in human SW620 cells incubated for 48 hrs by qRT-PCR analysis; type: functional, cell-based
U2OS [14] = experiment: Cytotoxicity against human U2OS cells assessed as reduction in cell viability incubated for 48 hrs by MTT assay; type: functional, cell-based
SOX2 promoter DNA [15] = experiment: Binding affinity to SOX2 promoter 5'-CTTTGTT-3' DNA in human SW620 cells assessed as down regulation of stemness associated BMP-4 mRNA expression at 2 uM incubated for 48 hrs by qRT-PCR analysis; type: cell-based; conditions: SW-620
SOX2 promoter DNA [16] = experiment: Binding affinity to SOX2 promoter 5'-CTTTGTT-3' DNA in human SW620 cells assessed as reduction in SOX2 protein level incubated for 48 hrs by immunostaining based FACS analysis; type: cell-based; conditions: SW-620
SOX2 promoter DNA [17] = experiment: Binding affinity to SOX2 promoter 5'-CTTTGTT-3' DNA in human MKN45 cells assessed as reduction in SOX2 protein level incubated for 48 hrs by immunostaining based FACS analysis; type: cell-based; conditions: MKN-45
SOX2 promoter DNA [18] = experiment: Binding affinity to SOX2 promoter 5'-CTTTGTT-3' DNA in human DU145 cells assessed as reduction in SOX2 mRNA expression incubated for 48 hrs by qRT-PCR analysis; type: cell-based; conditions: DU-145
SOX2 promoter DNA [19] = experiment: Binding affinity to SOX2 promoter 5'-CTTTGTT-3' DNA in mouse Wehi3 cells assessed as reduction in SOX2 mRNA expression incubated for 48 hrs by qRT-PCR analysis; type: cell-based
MCF7 [20] = experiment: Cell cycle arrest in human MCF7 cells assessed as reduction in accumulation at S phase at 2 uM to 5 uM after 48 hrs by propidium iodide staining based flow cytometry analysis; type: functional
U2OS [21] = experiment: Cell cycle arrest in human U2OS cells assessed as reduction in accumulation at G2/M phase at 2 uM to 5 uM after 48 hrs by propidium iodide staining based flow cytometry analysis; type: functional
SW-620 [22] = experiment: Up regulation of FASL mRNA expression in human SW620 cells incubated for 48 hrs by qRT-PCR analysis; type: functional, cell-based
SOX2 promoter DNA [23] = experiment: Binding affinity to SOX2 promoter 5'-CTTTGTT-3' DNA in human SW620 cells assessed as downregulation S100A4 mRNA expression incubated for 48 hrs by qRT-PCR analysis; type: cell-based; conditions: SW-620
SOX2 promoter DNA [24] = experiment: Binding affinity to SOX2 promoter 5'-CTTTGTT-3' DNA in human U2OS cells assessed as reduction in SOX2 mRNA expression incubated for 48 hrs by qRT-PCR analysis; type: cell-based
SOX2 promoter DNA [25] = experiment: Binding affinity to SOX2 promoter 5'-CTTTGTT-3' DNA in human U2OS cells assessed as reduction in SOX2 protein level incubated for 48 hrs by immunostaining based FACS analysis; type: cell-based
SOX2 promoter DNA [26] = experiment: Binding affinity to SOX2 promoter 5'-CTTTGTT-3' DNA in human SW620 cells assessed as down regulation of CDH2 gene expression at 2 uM incubated for 48 hrs by Cy3-labelled cRNA-based microarray analysis; type: cell-based; conditions: SW-620
SOX2 promoter DNA [27] = experiment: Binding affinity to SOX2 promoter 5'-CTTTGTT-3' DNA in human SW620 cells assessed as down regulation of NFKB1 mRNA expression at 2 uM incubated for 48 hrs by qRT-PCR analysis; type: cell-based; conditions: SW-620
SOX2 promoter DNA [28] = experiment: Binding affinity to SOX2 promoter 5'-CTTTGTT-3' DNA in human SW620 cells assessed as downregulation DVL3 mRNA expression incubated for 48 hrs by qRT-PCR analysis; type: cell-based; conditions: SW-620
MCF7 [29] = experiment: Cytotoxicity against human MCF7 cells assessed as reduction in cell viability incubated for 48 hrs by MTT assay; type: functional, cell-based
SOX2 promoter DNA [30] = experiment: Binding affinity to SOX2 promoter 5'-CTTTGTT-3' DNA in human SW620 cells assessed as downregulation WNT2B mRNA expression incubated for 48 hrs by qRT-PCR analysis; type: cell-based; conditions: SW-620
U2OS [31] = experiment: Cell cycle arrest in human U2OS cells assessed as increase in accumulation at sub-G1/G1 phase at 2 uM to 5 uM after 48 hrs by propidium iodide staining based flow cytometry analysis; type: functional
SW-620 [32] = experiment: Up regulation of p21cip1 mRNA expression in human SW620 cells incubated for 48 hrs by qRT-PCR analysis; type: functional, cell-based
SW-620 [33] = experiment: Up regulation of p27kip1 mRNA expression in human SW620 cells incubated for 48 hrs by qRT-PCR analysis; type: functional, cell-based

## CC(=O)Nc1cc(C(=O)Nc2cc(C(=O)Nc3cc(C(=O)NCCC(=O)Nc4cn(C)c(C(=O)Nc5cc(C(=O)NCCCC(=O)Nc6cc(C(=O)Nc7cc(C(=O)NCCC(=O)Nc8cc(C(=O)Nc9cc(C(=O)Nc%10cn(C)c(C(=O)NCCCN(C)C)n%10)n(C)c9)n(C)c8)n(C)c7)n(C)c6)n(C)c5)n4)n(C)c3)n(C)c2)n(C)c1
SOX2 promoter DNA [1]
  Activity: Active
SW-620 [2]
  Activity: Active
SOX2 promoter DNA [3]
  Activity: Dose-dependent effect
SOX2 promoter DNA [4]
  Activity: Active
MKN-45
  Activity: Active
SW-620 [5]
  Activity: Active
SW-620 [6]
  fold change (FC): 5
SOX2 promoter DNA [7]
  Activity: Active
SOX2 promoter DNA [8]
  Activity: Active
SW-620 [9]
  Activity: Active
MCF7 [10]
  Activity: Active
SOX2 promoter DNA [11]
  Activity: Active
SOX2 promoter DNA [12]
  Activity: Active
SW-620 [13]
  Activity: Active
U2OS [14]
  Activity: Dose-dependent effect
SOX2 promoter DNA [15]
  Activity: Active
SOX2 promoter DNA [16]
  Activity: Dose-dependent effect
SOX2 promoter DNA [17]
  Activity: Dose-dependent effect
SOX2 promoter DNA [18]
  Activity: Active
SOX2 promoter DNA [19]
  Activity: Active
MCF7 [20]
  Activity: Active
U2OS [21]
  Activity: Active
SW-620 [22]
  Activity: Active
SOX2 promoter DNA [23]
  Activity: Active
SOX2 promoter DNA [24]
  Activity: Active
SOX2 promoter DNA [25]
  Activity: Dose-dependent effect
SOX2 promoter DNA [26]
  Activity: Active
SOX2 promoter DNA [27]
  Activity: Active
SOX2 promoter DNA [28]
  Activity: Active
MCF7 [29]
  Activity: Dose-dependent effect
SOX2 promoter DNA [30]
  Activity: Active
U2OS [31]
  Activity: Active
SW-620 [32]
  Activity: Active
SW-620 [33]
  Activity: Active
